Data on ten compounds can be found in patent US9187790B2, “Saccharification of lignocellulosic biomass” (priority 2012, dated 2015).

The structures appear in SMILES notation. Where a name gives a salt, the structure may show the parent alone. Read-outs that look alike come from different tables or passages of the source.

The conditions of data set [1]: for Conversion: 1 ml H2O, 1500 mg LiBr, 100 mg spruce powder, 2 mg acid, 140° C., 30 min.
In data set [2] the test system is Saccharomyces cerevisiae. Put plainly: Glucose fermentation to ethanol in the presence of residual salt. It counts as cell-based. From the text: Complete separation of LiBr from sugars is difficult and expensive. Small amounts of LiBr or CaBr2 may be retained in the sugar product stream generated by the processes of this invention. If the sugars are intended for use for fermentation, the residual salt could potentially affect the fermentation. […]

Data set [3] can be described thus: Extraction of CaBr2 from CaBr2-glucose solution with n-butanol/hexane. In kind it is physicochemical. The method, then:
As mentioned above, CaBr2 can work as effectively as LiBr to hydrolyze lignocellulosic biomass. CaBr2 was extracted from glucose with the butanol extraction method as described above (A). […] More than half of the initial glucose was extracted to the solvent phase. […] Only 10 mg glucose was extracted into 5:5 butanol/hexane.

The nature of data set [4]: Hydrolysis of biomass in concentrated solutions of different salts. The settings on record: for conversion/hydrolysis of polysaccharides (in words): concentration of salt 60%.
From the text: Hydrolysis of biomass in different metal halide solutions was investigated.
Data set [5] is described as follows: Extraction of LiBr from LiBr-glucose solution with n-butanol/hexane. In kind it is physicochemical. The arrangement: Glucose retained/extraction steps: unit not given here. To be noted: for LiBr content left in the LiBr-glucose solution: butanol to hexane 7:3; for LiBr extracted / LiBr/sugar (separation efficiency) / Glucose extracted: organic phase from the 1st extraction; for glucose extracted into the butanol phase: butanol to hexane ratio 7/3; for Glucose retained after extraction: 200 mg glucose and 1500 mg LiBr in 1 mL water. An excerpt: A LiBr-glucose solution was first used to test the butanol extraction.

Data set [6] can be described thus: Solubility in water and organic solvent. In kind it is physicochemical. The settings on record: 60% salt in water. From the text:
After the extraction, any small amount of LiBr in the sugar stream can be removed by means of ion exchange resin, crystallization, precipitation with anti-solvent, and precipitation with sodium carbonate, as described in Examples herein.

Data set [7] in a line: Crystallization/precipitation of glucose by ethanol. In kind it is physicochemical. The settings on record: 400 mg glucose, 2 mL ethanol, 120° C. then cooled to room temperature. On the procedure: Glucose was dissolved in ethanol by heating to 120° C. to facilitate dissolution. The resulting clear solution was then cooled to room temperature with stirring to allow sugar crystallization (or precipitation). Precipitated glucose was filtered and washed with ethanol. However, a small amount of glucose was found dissolved in ethanol, and therefore glucose was not fully recovered. […] The same crystallization operation was carried out as for pure glucose above. […] Almost all other sugars and LiBr were however retained in the ethanol. […] In addition, xylose may negatively affect the crystallization of glucose.

For data set [8] the following is noted: cited from earlier work.
Where [9] appears, read: over the investigated concentrations (0 to 5% w/v).
[10] abbreviates: salt concentration 2% (w/v), FIG. 9A.
[11] abbreviates: butanol:hexane 5:5 (v/v), 15 extraction steps.
[12] abbreviates: butanol:hexane 6:4 (v/v), 13 extraction steps.
Where [13] appears, read: butanol:hexane 6.5:3.5 (v/v), 12 extraction steps.
Where [14] appears, read: butanol:hexane 7:3 (v/v), 10 extraction steps.
Setting [15] is: butanol:hexane 7.5:2.5 (v/v), 9 extraction steps.
Where [16] appears, read: butanol:hexane 8:2 (v/v), 9 extraction steps.
Setting [17] is: butanol:hexane 8.5:1.5 (v/v), 8 extraction steps.
[18] abbreviates: butanol:hexane 9:1 (v/v), 7 extraction steps.
Where [19] appears, read: butanol:hexane 10:0 (v/v), 6 extraction steps.

With `CC(=O)O` [CH3COOH, acetic acid], the Conversion in data set [1] is 90%.

Take `[Br-].[Br-].[Ca+2]` [CaBr2]: the ethanol yield result in data set [2] (compared with LiBr, FIG. 8) is reported as “higher”. The “inhibition on sugar fermentation” value was “generally less inhibitory” in data set [2] (setting [9]); “more inhibitory than NaCl and CaCl2” in data set [2] (setting [10]); “Inhibition became more significant” in data set [2] (salt concentration 5% (w/v)). For the same compound, the “CaBr2 left in the solution” value in data set [3] (butanol/hexane 5:5, 30 extractions, from 1500 mg) was determined as 70 mg. The “conversion/hydrolysis of polysaccharides (in words)” value (“conversion/hydrolysis” below) in data set [4] is recorded as “complete conversion/hydrolysis”.

With `[Ca+2].[Cl-].[Cl-]` [CaCl2, calcium chloride, reference compound], the “inhibition on sugar fermentation” value in data set [2] (setting [9]) was “does not appear to be inhibitory”. The Conversion in data set [4] is 70%.

In the case of `O=P(O)(O)O` [H3PO4, phosphoric acid], the Conversion in data set [1] amounted to 95%.

For `Cl` [HCl, hydrochloric acid], in data set [1], the Conversion was 100%.

Compound `O=[N+]([O-])O` [HNO3, nitric acid] showed a Conversion in data set [1] of 100%. Further, the “effectiveness in catalyzing the hydrolysis of spruce (in words)” value in data set [1] (60% LiBr solution) is on record as “as effective as hydrochloric acid”.

Turning to `[Br-].[Li+]` [LiBr, Lithium bromide], the “inhibition on sugar fermentation” value in data set [2] (setting [10]) is “more inhibitory than NaCl and CaCl2”; in data set [2] (salt concentration 5% (w/v)), “the inhibition was significant”; in data set [2] (salt concentration below 5% (w/v), FIG. 7), “did not have significant inhibition”. For the same compound, the “LiBr content left in the LiBr-glucose solution” value is 250 mg in data set [5] (after 10 extractions, from 1500 mg); 50 mg in data set [5] (after 20 extractions); 30 mg in data set [5] (after 30 extractions). Also, the LiBr extracted was 141 mg in data set [5] (butanol:hexane 5:5); 152 mg in data set [5] (butanol:hexane 6:4); 195 mg in data set [5] (butanol:hexane 6.5:3.5); 216 mg in data set [5] (butanol:hexane 7:3); 231 mg in data set [5] (butanol:hexane 7.5:2.5); 252 mg in data set [5] (butanol:hexane 8:2). Moreover, the LiBr extracted in data set [5] (butanol:hexane 8.5:1.5) is on record as 277 mg; in data set [5] (butanol:hexane 9:1), 310 mg; in data set [5] (butanol:hexane 10:0), 383 mg. Besides, the “LiBr/sugar (separation efficiency)” value in data set [5] (butanol:hexane 5:5) is listed as 71; in data set [5] (butanol:hexane 6:4) it was 51; in data set [5] (butanol:hexane 6.5:3.5) it was 49; in data set [5] (butanol:hexane 7:3), 48; in data set [5] (butanol:hexane 7.5:2.5), 46; in data set [5] (butanol:hexane 8:2) it was 46. In addition, the “LiBr/sugar (separation efficiency)” value in data set [5] (butanol:hexane 8.5:1.5) was 40; in data set [5] (butanol:hexane 9:1) it was 26; in data set [5] (butanol:hexane 10:0), 19. The Conversion in data set [4] was 100%. Moreover, the “conversion/hydrolysis” value in data set [4] is “complete conversion/hydrolysis”.

For `[Cl-].[Li+]` [LiCl, reference compound], in data set [6], the “temperature at which the solution starts crystallizing” value turned out to be 120 °C. Moreover, the “conversion/hydrolysis” value in data set [4] is “complete conversion/hydrolysis”.

For the compound `[Cl-].[Na+]` [NaCl, reference compound], in data set [2] (salt concentration 5% (w/v)), the “inhibition on sugar fermentation” value is on record as “showed inhibition similar to LiBr”.

`O=C[C@H](O)[C@@H](O)[C@H](O)[C@H](O)CO` [glucose]: the “glucose extracted into the butanol phase” value in data set [5] is “about 10%”; in data set [5] (out of 320 mg glucose), about 30 mg. For the same compound, the Glucose retained/extraction steps in data set [5] (setting [11]) came out at 12.6; in data set [5] (setting [12]), 14.5; in data set [5] (setting [13]) it was 16; in data set [5] (setting [14]), 18.5; in data set [5] (setting [15]), 19.4; in data set [5] (setting [16]), 17.8. Moreover, the results for the Glucose retained/extraction steps in data set [5] (setting [17]), in data set [5] (setting [18]) and in data set [5] (setting [19]) were 17.5, 16.5 and 16, respectively. The “Glucose retained after extraction” value in data set [5] (setting [11]) was 190 mg; in data set [5] (setting [12]), 189 mg; in data set [5] (setting [13]) it was 187 mg; in data set [5] (setting [14]), 185 mg; in data set [5] (setting [15]) it was 175 mg; in data set [5] (setting [16]), 160 mg. The “Glucose retained after extraction” value is 140 mg in data set [5] (setting [17]), 115 mg in data set [5] (setting [18]) and 95 mg in data set [5] (setting [19]). For the same compound, the Glucose extracted is 2 mg in data set [5] (butanol:hexane 5:5); 3 mg in data set [5] (butanol:hexane 6:4); 4 mg in data set [5] (butanol:hexane 6.5:3.5); 4.5 mg in data set [5] (butanol:hexane 7:3); 5 mg in data set [5] (butanol:hexane 7.5:2.5); 5.5 mg in data set [5] (butanol:hexane 8:2). For the same compound, the Glucose extracted is on record as 7 mg in data set [5] (butanol:hexane 8.5:1.5), 12 mg in data set [5] (butanol:hexane 9:1) and 20 mg in data set [5] (butanol:hexane 10:0). Also, the “glucose extracted into butanol/hexane” value in data set [3] (butanol/hexane 5:5, 30 extractions) is 10 mg. In addition, the “glucose left in the solution” value in data set [3] (butanol/hexane 5:5, 30 extractions, from 200 mg) is given as 190 mg. Also, the “glucose left in the aqueous phase” value in data set [3] (butanol/hexane 7:3, 10 extractions, 1500 mg CaBr2, 1 mL water, 200 mg glucose) is given as “approximately 95 mg”. Moreover, the Precipitated glucose in data set [7] (Entry 0: LiBr 0 mg, water 0 μL) was 400 mg; in data set [7] (Entry 1: LiBr 50 mg, water 30 μL) it was 330 mg; in data set [7] (Entry 2: LiBr 50 mg, water 50 μL), 330 mg; in data set [7] (Entry 3: LiBr 50 mg, water 100 μL), 330 mg; in data set [7] (Entry 4: LiBr 50 mg, water 150 μL), 330 mg; in data set [7] (Entry 5: LiBr 100 mg, water 150 μL), 320 mg. Besides, the Precipitated glucose in data set [7] (Entry 6: LiBr 150 mg, water 150 μL) was 300 mg; in data set [7] (Entry 7: LiBr 200 mg, water 150 μL) it was 250 mg. The “solubility in n-butanol (in words)” value in data set [8] is “insoluble”.
